Drawing on ChEMBL document CHEMBL5653631, “A Potent and Selective ULK1 Inhibitor Suppresses Autophagy and Sensitizes Cancer Cells to Nutrient Stress” (iScience, 2018), this text covers fold change (FC) and inhibition for 3 compounds.

Experiment [1] deals with Mitogen-activated protein kinase kinase kinase 20 (Homo sapiens) (UniProt Q9NYL2). Put plainly: Inhibition of human recombinant ZAK at 40 nM related to control ULK1.
Experiment [2] concerns the target Tau-tubulin kinase 1 (Homo sapiens) (UniProt Q5TCY1). In words: Inhibition of human recombinant TTBK1 at 500 nM in presence of ATP by radiometric assay relative to control.
Experiment [3] concerns the target T1, Serine/threonine-protein kinase Nek9 (Homo sapiens) (UniProt Q8TD19).
T1 sequence (whole entry): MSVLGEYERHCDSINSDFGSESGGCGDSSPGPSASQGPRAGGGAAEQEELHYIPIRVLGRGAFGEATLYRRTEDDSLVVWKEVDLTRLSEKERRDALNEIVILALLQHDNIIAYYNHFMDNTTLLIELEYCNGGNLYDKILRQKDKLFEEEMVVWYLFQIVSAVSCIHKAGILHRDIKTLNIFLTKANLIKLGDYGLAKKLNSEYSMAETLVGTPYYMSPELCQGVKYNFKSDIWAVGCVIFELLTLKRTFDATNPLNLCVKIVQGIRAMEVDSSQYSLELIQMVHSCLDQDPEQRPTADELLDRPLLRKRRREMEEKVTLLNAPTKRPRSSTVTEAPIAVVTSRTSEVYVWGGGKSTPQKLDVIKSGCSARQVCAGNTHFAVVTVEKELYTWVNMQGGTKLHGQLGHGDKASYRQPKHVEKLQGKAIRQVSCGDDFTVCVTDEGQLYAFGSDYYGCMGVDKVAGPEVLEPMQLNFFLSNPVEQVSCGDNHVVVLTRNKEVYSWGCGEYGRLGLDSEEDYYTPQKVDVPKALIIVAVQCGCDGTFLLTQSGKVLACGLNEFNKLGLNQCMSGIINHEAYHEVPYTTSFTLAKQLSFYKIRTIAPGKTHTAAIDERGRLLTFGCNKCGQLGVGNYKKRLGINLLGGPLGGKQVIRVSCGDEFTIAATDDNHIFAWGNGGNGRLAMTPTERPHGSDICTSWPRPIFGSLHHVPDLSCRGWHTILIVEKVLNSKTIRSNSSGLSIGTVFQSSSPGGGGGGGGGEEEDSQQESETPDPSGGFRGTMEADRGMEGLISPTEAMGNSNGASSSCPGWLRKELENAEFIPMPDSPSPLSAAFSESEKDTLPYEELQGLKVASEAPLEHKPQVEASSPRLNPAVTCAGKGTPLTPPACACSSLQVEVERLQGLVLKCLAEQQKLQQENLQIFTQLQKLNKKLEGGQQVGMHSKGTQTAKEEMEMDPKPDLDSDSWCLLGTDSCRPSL
In words: Inhibition of human recombinant NEK9 at 500 nM related to control ULK1.

In experiment [4] the target is SRSF protein kinase 2 (Homo sapiens) (UniProt P78362). Put plainly: Inhibition of human recombinant SRPK2 at 15 nM in presence of ATP by radiometric assay relative to control.
Experiment [5] concerns the target T2, Tyrosine-protein kinase Mer (Homo sapiens) (UniProt Q12866).
T2 sequence (whole entry): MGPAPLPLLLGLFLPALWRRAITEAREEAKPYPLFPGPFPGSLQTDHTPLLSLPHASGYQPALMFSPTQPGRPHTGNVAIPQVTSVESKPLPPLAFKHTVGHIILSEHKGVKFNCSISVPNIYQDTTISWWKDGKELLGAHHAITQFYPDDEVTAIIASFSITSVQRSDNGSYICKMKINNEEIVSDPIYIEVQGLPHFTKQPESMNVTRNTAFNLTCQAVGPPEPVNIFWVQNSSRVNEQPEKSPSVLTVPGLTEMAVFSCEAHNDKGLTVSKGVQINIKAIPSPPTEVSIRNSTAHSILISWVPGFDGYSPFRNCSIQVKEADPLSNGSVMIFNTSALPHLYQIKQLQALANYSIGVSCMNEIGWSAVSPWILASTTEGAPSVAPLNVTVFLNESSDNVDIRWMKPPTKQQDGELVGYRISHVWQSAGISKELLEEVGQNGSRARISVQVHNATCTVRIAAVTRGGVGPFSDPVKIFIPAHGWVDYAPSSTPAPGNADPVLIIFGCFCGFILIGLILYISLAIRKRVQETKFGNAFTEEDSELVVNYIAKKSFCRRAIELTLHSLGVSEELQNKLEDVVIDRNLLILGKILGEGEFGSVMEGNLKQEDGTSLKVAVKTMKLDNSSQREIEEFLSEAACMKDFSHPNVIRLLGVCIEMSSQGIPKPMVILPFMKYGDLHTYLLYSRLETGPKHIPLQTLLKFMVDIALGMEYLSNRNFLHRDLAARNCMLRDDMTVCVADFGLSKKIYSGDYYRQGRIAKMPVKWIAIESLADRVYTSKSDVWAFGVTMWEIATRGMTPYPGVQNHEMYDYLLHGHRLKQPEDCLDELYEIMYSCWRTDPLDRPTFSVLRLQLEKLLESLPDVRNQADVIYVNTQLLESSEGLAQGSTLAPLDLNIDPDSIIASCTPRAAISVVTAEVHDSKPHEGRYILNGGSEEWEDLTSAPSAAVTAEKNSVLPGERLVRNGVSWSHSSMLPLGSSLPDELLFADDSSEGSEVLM
In words: Inhibition of human recombinant MER at 15 nM related to control ULK1.

Experiment [6] has as its target Angiopoietin-1 receptor (Homo sapiens) (UniProt Q02763). In words: Inhibition of human recombinant Tie2 at 15 nM related to control ULK1.

In general, inhibition refers to the drop in the measured response relative to a control, in per cent.

Sequence of SRSF protein kinase 2 (Homo sapiens) (P78362 whole entry, looked up): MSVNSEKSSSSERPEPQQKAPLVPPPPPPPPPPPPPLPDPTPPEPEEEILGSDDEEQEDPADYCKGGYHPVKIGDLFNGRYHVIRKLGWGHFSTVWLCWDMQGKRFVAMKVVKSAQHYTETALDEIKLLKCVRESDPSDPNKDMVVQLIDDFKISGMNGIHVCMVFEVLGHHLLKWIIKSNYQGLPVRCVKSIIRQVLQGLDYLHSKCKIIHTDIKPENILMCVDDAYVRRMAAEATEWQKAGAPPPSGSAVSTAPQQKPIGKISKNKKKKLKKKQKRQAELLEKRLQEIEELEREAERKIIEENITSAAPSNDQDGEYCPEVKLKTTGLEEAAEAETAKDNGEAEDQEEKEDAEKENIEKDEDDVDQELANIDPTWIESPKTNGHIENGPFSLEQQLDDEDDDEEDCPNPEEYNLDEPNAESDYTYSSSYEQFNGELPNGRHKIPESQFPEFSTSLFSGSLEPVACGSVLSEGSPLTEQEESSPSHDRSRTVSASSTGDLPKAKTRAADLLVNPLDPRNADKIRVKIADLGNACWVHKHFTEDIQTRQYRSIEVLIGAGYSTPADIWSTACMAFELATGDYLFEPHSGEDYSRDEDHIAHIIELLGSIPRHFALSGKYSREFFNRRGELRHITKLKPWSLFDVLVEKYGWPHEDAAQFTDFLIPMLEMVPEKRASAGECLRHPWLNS
Sequence of Tau-tubulin kinase 1 (Homo sapiens) (Q5TCY1 whole entry): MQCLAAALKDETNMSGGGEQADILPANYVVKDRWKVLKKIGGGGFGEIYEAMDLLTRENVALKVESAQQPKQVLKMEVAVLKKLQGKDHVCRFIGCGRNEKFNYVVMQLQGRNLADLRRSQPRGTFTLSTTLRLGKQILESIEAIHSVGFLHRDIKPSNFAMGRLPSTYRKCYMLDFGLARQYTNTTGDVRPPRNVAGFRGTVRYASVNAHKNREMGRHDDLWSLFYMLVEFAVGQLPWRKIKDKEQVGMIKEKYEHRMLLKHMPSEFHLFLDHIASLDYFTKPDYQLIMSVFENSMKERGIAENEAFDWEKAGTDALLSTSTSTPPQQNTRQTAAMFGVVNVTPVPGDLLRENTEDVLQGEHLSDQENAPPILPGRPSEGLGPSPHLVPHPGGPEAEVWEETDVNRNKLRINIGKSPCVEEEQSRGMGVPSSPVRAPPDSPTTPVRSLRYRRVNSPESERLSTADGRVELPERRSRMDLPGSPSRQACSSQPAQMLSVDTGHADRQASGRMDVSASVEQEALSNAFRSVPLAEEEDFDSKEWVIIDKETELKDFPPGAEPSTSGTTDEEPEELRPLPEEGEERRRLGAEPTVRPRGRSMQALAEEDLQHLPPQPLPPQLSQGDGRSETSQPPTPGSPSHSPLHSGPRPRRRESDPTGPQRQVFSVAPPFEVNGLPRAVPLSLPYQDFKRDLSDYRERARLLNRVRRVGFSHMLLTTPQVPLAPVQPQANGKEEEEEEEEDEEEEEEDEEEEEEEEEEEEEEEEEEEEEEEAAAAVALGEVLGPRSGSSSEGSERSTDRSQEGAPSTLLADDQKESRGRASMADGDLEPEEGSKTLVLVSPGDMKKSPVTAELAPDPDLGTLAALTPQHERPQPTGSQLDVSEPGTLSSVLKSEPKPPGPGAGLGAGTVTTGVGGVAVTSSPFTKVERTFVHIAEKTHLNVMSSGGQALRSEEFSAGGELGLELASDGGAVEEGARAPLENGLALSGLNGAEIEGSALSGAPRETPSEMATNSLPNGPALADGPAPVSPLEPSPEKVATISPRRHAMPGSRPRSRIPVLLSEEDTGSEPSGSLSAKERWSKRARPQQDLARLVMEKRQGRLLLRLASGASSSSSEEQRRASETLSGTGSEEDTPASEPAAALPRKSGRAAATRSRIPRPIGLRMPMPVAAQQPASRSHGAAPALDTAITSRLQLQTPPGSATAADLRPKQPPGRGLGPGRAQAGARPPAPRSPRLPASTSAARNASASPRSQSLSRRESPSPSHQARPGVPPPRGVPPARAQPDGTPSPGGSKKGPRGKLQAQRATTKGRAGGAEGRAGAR
Sequence of Angiopoietin-1 receptor (Homo sapiens) (Q02763 whole entry): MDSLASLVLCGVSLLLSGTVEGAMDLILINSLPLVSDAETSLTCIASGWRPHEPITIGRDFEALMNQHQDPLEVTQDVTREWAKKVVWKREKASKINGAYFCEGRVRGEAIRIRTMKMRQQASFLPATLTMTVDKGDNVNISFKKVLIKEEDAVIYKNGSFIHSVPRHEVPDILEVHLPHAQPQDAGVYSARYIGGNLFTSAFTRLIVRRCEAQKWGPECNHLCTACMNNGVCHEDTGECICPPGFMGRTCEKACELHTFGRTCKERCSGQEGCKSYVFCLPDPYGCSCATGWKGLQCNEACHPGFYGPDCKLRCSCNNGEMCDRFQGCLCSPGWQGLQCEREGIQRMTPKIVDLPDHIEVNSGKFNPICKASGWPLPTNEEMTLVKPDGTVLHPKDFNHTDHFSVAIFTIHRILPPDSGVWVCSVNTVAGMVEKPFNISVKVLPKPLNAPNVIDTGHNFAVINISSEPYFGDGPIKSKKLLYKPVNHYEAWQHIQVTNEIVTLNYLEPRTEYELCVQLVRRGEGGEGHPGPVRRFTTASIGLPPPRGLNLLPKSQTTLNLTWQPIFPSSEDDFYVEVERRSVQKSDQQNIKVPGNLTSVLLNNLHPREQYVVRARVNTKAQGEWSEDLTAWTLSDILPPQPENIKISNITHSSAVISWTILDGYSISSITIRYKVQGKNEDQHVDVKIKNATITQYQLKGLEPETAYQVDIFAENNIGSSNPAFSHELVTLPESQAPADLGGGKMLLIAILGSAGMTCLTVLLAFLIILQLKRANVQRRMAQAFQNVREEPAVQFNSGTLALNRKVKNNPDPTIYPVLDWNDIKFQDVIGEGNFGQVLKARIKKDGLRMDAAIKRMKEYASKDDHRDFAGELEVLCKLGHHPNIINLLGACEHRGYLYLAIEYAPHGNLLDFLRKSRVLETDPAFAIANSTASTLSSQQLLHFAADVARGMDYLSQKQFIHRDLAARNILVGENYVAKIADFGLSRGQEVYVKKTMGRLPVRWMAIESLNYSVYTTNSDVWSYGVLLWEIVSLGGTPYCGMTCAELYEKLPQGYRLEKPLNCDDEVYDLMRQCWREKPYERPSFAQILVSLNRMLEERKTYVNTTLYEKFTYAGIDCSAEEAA
Sequence of Mitogen-activated protein kinase kinase kinase 20 (Homo sapiens) (Q9NYL2 2-800 limits assumed): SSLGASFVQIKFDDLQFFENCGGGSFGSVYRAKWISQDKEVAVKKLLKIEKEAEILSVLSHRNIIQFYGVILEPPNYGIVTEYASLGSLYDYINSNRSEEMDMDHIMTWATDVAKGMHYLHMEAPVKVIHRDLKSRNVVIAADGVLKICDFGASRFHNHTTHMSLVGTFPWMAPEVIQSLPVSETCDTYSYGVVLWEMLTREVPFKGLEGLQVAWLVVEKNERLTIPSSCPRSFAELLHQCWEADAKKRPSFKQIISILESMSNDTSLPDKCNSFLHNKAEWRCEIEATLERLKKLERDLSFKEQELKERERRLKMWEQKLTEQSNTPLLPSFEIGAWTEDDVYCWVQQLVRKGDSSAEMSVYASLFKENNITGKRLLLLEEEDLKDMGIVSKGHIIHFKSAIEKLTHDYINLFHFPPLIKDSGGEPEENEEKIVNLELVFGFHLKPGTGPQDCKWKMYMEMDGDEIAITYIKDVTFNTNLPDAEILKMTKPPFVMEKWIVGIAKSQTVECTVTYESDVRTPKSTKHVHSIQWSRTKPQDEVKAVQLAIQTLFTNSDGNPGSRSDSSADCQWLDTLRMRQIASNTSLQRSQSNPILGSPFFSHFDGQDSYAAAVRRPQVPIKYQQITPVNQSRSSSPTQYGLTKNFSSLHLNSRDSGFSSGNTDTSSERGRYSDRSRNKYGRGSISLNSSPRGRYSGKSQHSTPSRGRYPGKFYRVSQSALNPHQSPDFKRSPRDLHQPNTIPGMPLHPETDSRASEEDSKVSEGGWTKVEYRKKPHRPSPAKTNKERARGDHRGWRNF

Consider `O=C(N[C@@H](C1CC1)C(F)(F)F)c1cc(-c2cnn3cc(-c4ccc(F)cc4)cnc23)cs1`, for which the fold change (FC) in experiment [1] was 0.

Consider `CNC(=O)c1ccccc1Oc1nc(Nc2cc(OC)c(OC)c(OC)c2)ncc1Br`, for which the inhibition in experiment [2] worked out at 1%. For the same compound, the fold change (FC) in experiment [3] turned out to be 0.

`CC(C)[C@H](NC(=O)c1cc(-c2cnn3cc(-c4ccc(OCCN5CCCCC5)cc4)cnc23)cs1)C(F)(F)F`: the inhibition in experiment [4] amounted to 0%. Also, the fold change (FC) in experiment [5] was 0.39; in experiment [6] it was 0.
